Laboratory results reported in ChEMBL document CHEMBL4334513, “Discovery of a Potent, Selective, and Orally Available MTHFD2 Inhibitor (DS18561882) with in Vivo Antitumor Activity” (J Med Chem, 2019).
In brackets after ≈: the same amount, converted by molar mass. Values belong to the compound of their own block, whether it stands above or below them.

Assays:
[1] = Dissociation constant, acidic pKa of compound; assay type: physicochemical
[2] = Effective permeability of compound at pH 7.4 by PAMPA; assay type: ADME; conditions: read-out: Peff
[3] = Lipophilicity, logP of compound; assay type: physicochemical; conditions: octanol/water
[4] = Antiproliferative activity against human MDA-MB-231-luc-D3H2LN cells assessed as inhibition of growth after 3 days by CellTiter Glo assay; assay type: functional; conditions: 72 h
[5] = target: T1, Bifunctional methylenetetrahydrofolate dehydrogenase/cyclohydrolase, mitochondrial (Homo sapiens, UniProt P13995); test: Inhibition of recombinant MTHFD2 (unknown origin) using THF as substrate incubated for 30 mins in presence of NAD
T1 sequence (P13995 whole entry): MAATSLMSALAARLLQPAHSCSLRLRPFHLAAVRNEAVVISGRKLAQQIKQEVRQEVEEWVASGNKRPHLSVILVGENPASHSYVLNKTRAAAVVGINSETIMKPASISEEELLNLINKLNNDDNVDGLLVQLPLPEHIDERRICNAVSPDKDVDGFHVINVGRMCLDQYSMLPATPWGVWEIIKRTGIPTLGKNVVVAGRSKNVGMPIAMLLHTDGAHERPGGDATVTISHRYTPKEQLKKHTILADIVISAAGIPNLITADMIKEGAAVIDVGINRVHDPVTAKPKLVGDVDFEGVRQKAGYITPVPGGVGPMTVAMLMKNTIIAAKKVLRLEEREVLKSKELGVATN

[6] = target: T2, C-1-tetrahydrofolate synthase, cytoplasmic (Homo sapiens, UniProt P11586)
T2 sequence (P11586 whole entry): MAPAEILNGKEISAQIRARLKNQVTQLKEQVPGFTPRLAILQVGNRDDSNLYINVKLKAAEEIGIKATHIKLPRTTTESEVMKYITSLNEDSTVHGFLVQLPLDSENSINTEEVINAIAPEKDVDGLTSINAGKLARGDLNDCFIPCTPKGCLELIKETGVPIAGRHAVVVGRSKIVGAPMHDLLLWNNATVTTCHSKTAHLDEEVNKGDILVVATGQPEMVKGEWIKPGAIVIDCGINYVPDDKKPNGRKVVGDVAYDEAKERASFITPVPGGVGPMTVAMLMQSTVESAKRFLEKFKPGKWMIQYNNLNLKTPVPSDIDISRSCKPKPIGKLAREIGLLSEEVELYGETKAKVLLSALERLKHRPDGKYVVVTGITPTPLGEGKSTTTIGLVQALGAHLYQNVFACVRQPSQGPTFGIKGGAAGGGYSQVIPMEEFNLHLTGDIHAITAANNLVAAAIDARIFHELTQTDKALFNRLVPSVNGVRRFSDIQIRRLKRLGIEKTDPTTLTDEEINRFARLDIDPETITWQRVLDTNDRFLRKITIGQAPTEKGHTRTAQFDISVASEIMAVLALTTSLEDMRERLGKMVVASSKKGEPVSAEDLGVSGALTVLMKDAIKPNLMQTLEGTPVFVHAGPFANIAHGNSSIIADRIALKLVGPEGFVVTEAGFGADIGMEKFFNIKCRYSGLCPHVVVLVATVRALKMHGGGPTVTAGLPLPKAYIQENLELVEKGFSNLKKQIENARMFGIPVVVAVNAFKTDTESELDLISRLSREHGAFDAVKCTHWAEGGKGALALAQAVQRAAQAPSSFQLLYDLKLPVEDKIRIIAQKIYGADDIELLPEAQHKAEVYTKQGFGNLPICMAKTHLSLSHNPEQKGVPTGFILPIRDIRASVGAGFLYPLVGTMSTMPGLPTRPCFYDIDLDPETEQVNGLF
Description: Inhibition of recombinant MTHFD1 (unknown origin) using THF as substrate incubated for 30 mins in presence of NAD

[7] = Lipophilicity, logD of compound; assay type: physicochemical; conditions: octanol/water
[8] = AUC in BALBc mouse at 10 mg/kg, po measured for 24 hrs by LC-MS/MS analysis; assay type: ADME, organism-based; conditions: in vivo
[9] = AUC in BALBc mouse at 100 mg/kg, po measured for 24 hrs by LC-MS/MS analysis; assay type: ADME, organism-based; conditions: in vivo
[10] = AUC in BALBc mouse at 30 mg/kg, po measured for 24 hrs by LC-MS/MS analysis; assay type: ADME, organism-based; conditions: in vivo
[11] = AUC in BALBc mouse at 300 mg/kg, po measured for 24 hrs by LC-MS/MS analysis; assay type: ADME, organism-based; conditions: in vivo
[12] = Cmax in BALBc mouse at 10 mg/kg, po measured for 24 hrs by LC-MS/MS analysis; assay type: ADME, organism-based; set-up: dose 10 mg/kg, route oral; conditions: in vivo
[13] = Cmax in BALBc mouse at 30 mg/kg, po measured for 24 hrs by LC-MS/MS analysis; assay type: ADME, organism-based; set-up: dose 30 mg/kg, route oral; conditions: in vivo
[14] = Cmax in BALBc mouse at 100 mg/kg, po measured for 24 hrs by LC-MS/MS analysis; assay type: ADME, organism-based; set-up: dose 100 mg/kg, route oral; conditions: in vivo
[15] = Cmax in BALBc mouse at 300 mg/kg, po measured for 24 hrs by LC-MS/MS analysis; assay type: ADME, organism-based; set-up: dose 300 mg/kg, route oral; conditions: in vivo
[16] = Half life in BALBc mouse at 10 mg/kg, po measured for 24 hrs by LC-MS/MS analysis; assay type: ADME, organism-based; conditions: in vivo
[17] = Half life in BALBc mouse at 30 mg/kg, po measured for 24 hrs by LC-MS/MS analysis; assay type: ADME, organism-based; conditions: in vivo
[18] = Half life in BALBc mouse at 100 mg/kg, po measured for 24 hrs by LC-MS/MS analysis; assay type: ADME, organism-based; conditions: in vivo
[19] = Half life in BALBc mouse at 300 mg/kg, po measured for 24 hrs by LC-MS/MS analysis; assay type: ADME, organism-based; conditions: in vivo
[20] = Effective permeability of compound at pH 5 by PAMPA; assay type: ADME; conditions: read-out: Peff
[21] = Solubility of compound in pH 1.2; assay type: physicochemical; conditions: buffer
[22] = Solubility of compound in pH 6.8; assay type: physicochemical; conditions: buffer
[23] = Metabolic stability in mouse liver microsomes assessed as remaining parent compound at 1 uM after 0.5 hrs; assay type: ADME, Microsome; conditions: read-out: Stability
[24] = Fraction unbound in mouse plasma; assay type: ADME, cell-free
[25] = Free plasma concentration in BALBc mouse at 10 to 300 mg/kg, po measured after 24 hrs by LC-MS/MS analysis; assay type: ADME, organism-based; conditions: in vivo
[26] = Antitumor activity against human MDA-MB-231-Luc cells xenografted in BALB/cAJcl nu/nu mouse assessed as tumour growth inhibition at 300 mg/kg, po administered bid for 11 days and measured every 2 to 3 days relative to control; assay type: functional; conditions: read-out: TGI
[27] = Toxicity in BALB/cAJcl nu/nu mouse xenografted with human MDA-MB-231-Luc cells assessed as body weight loss at 30 to 300 mg/kg, po administered bid for 11 days and measured every 1 to 2 days; assay type: organism-based; conditions: in vivo
[28] = species: Homo sapiens
Description: Antitumor activity against human MDA-MB-231-Luc cells xenografted in orally dosed BALB/cAJcl nu/nu mouse assessed as tumour growth inhibition administered bid for 11 days and measured every 2 to 3 days relative to control

Compound: Cc1c(N2CCN(C)CC2)ccc2c3c(c(=O)oc12)CN(C(=O)c1ccc(NS(C)(=O)=O)c(OC(F)(F)F)c1)CC3
pKa [1]: 6.8
Papp [2]: 437 nm/s
logP [3]: 1.9
GI50 [4]: 0.38 µM

Compound: Cc1cccc2oc(=O)c3c(c12)CCN(C(=O)c1ccc(C(=O)O)cc1)C3
IC50 [5]: 1.3 µM
IC50 [6]: > 30 µM

Compound: Cc1cc(C(=O)N2CCc3c(c(=O)oc4c(C)c(N5CCN(C)CC5)ccc34)C2)ccc1NS(C)(=O)=O
IC50 [5]: 0.53 µM
pKa [1]: 8.3
Papp [2]: 231 nm/s
logP [3]: 1.8
GI50 [4]: 7.7 µM
IC50 [6]: > 30 µM

Compound: Cc1c(N2CCN(C)[C@@H](C)C2)ccc2c3c(c(=O)oc12)CN(C(=O)c1ccc(NS(C)(=O)=O)c(Cl)c1)CC3
logP [3]: 2
GI50 [4]: 0.2 µM
logD [7]: 1.6

Compound: CN(C)c1ccc(-c2ccc3c4c(c(=O)oc3c2)CN(C(=O)c2ccc(C(=O)O)cc2)CC4)cc1
IC50 [5]: 3.8 µM
IC50 [6]: 5.4 µM

Compound: Cc1c(N2CCN(C)[C@@H](C)C2)ccc2c3c(c(=O)oc12)CN(C(=O)c1ccc(NS(C)(=O)=O)c(OC(F)(F)F)c1)CC3
Papp [2]: > 500 nm/s
logP [3]: 2.1
GI50 [4]: 0.34 µM
logD [7]: 1.9
AUC at 24 h [8]: 64.4 µg·h/mL
AUC at 24 h [9]: 726 µg·h/mL
AUC at 24 h [10]: 264 µg·h/mL
AUC at 24 h [11]: 1630 µg·h/mL
Cmax [12]: 11.4 µg/mL
Cmax [13]: 56.5 µg/mL
Cmax [14]: 90.1 µg/mL
Cmax [15]: 143 µg/mL
half-life [16]: 2.21 h
half-life [17]: 2.16 h
half-life [18]: 2.32 h
half-life [19]: 4 h
Papp [20]: 172 nm/s
solubility [21]: 1.1 mg/mL (≈ 1810 µM)
solubility [22]: 0.63 mg/mL (≈ 1040 µM)
remaining at 0.5 h, 1 µM [23]: 66%
fraction unbound [24]: 0.031
Cp(f) [25]: 0 µg/mL
inhibition in vivo at 300 mg/kg [26]: 67%
Activity [27]: Non-Toxic
TGI [28]: Dose-dependent effect

Compound: Cc1cc2c3c(c(=O)oc2cc1OCCN(C)C)CN(C(=O)c1ccc(C(=O)O)cc1)CC3
IC50 [5]: > 30 µM
IC50 [6]: > 30 µM

Now from value to compound, other results behind:

IC50 [5]: 0.038 µM
pKa [1]: 6.9
Papp [2]: 169 nm/s
logP [3]: 1.7
IC50 [6]: 8 µM
Compound: Cc1c(N2CCN(C)CC2)ccc2c3c(c(=O)oc12)CN(C(=O)c1ccc(NS(C)(=O)=O)c(F)c1)CC3
GI50 [4]: 2 µM

IC50 [5]: 0.39 µM
IC50 [6]: 27 µM
Compound: CN1CCC(Oc2ccc3c4c(c(=O)oc3c2)CN(C(=O)c2ccc(C(=O)O)cc2)CC4)CC1

IC50 [5]: 0.13 µM
logP [3]: 2
Compound: Cc1c(N2CCN(C)[C@H](C)C2)ccc2c3c(c(=O)oc12)CN(C(=O)c1ccc(NS(C)(=O)=O)c(Cl)c1)CC3
GI50 [4]: 1.7 µM

IC50 [5]: 0.34 µM
IC50 [6]: 23 µM
Compound: CN(C)Cc1ccc(-c2ccc3c4c(c(=O)oc3c2)CN(C(=O)c2ccc(C(=O)O)cc2)CC4)cc1

IC50 [5]: 0.053 µM
IC50 [6]: 8.4 µM
Compound: Cc1c(OCCN(C)C)ccc2c3c(c(=O)oc12)CN(C(=O)c1ccc2c(c1)CS(=O)(=O)N2)CC3
